Measured values: patent US8076331B2, “Substituted pyridazine derivatives” (Cephalon, Inc., priority 2008, dated 2011)

Key:
human H3 receptor = target: T1, human H3 receptor (Homo sapiens, UniProt Q9Y5N1); assay: Human H3 radioligand binding ([3H]-N-alpha-methylhistamine, CHO cell membranes); details: membranes of CHO cells stably expressing the human H3 receptor; [3H]-N-alpha-methylhistamine approx. 1 nM
T1 construct: expressed in transfected cells
Method: Methods: CHO cells stably expressing the human H3 receptor (GenBank: NM_007232) were harvested and cell pellets were frozen (—80° C.). Cell pellets were resuspended in 5 mM Tris-HCl, pH 7.5 with […] and a cocktail of protease inhibitors (Complete Protease Inhibitior Tablets, Roche Diagnostics). Cells were disrupted using a polytron cell homogenizer and the suspension was centrifuged at 1000×g for 10 minutes at 4° C. The pellet was discarded and the supernatant centrifuged at 40,000×g for 30 min at 4° C. This membrane pellet was washed in membrane buffer containing 50 mM Tris-HCl, pH 7.5 with 0.6 mM EDTA, 5 mM MgCl2 and protease inhibitors, recentrifuged as above and the final pellet resuspended in membrane buffer plus 250 mM sucrose and frozen at −80° C.
Radioligand Binding. Membranes were resuspended in 50 mM Tris HCl (pH 7.4), 5 mM MgCl2, 0.1% BSA. The membrane suspensions (10 μg protein per well) were incubated in a 96 well microtiter plate with [^3H]-N-alpha-methylhistamine (approximately 1 nM final concentration), test compounds at various concentrations (0.01 nM-30 μM) and scintillation proximity beads (Perkin Elmer, FlashBlueGPCR Scintillating Beads) in a final volume of 80 μl for 4 hours at room temperature, protected from light. Non-specific binding was determined in the presence of 10 μM clobenpropit. Radioligand bound to receptor, and therefore in proximity to the scintillation beads, was measured using a MicroBeta scintillation counter.

T1 sequence (Q9Y5N1 whole entry): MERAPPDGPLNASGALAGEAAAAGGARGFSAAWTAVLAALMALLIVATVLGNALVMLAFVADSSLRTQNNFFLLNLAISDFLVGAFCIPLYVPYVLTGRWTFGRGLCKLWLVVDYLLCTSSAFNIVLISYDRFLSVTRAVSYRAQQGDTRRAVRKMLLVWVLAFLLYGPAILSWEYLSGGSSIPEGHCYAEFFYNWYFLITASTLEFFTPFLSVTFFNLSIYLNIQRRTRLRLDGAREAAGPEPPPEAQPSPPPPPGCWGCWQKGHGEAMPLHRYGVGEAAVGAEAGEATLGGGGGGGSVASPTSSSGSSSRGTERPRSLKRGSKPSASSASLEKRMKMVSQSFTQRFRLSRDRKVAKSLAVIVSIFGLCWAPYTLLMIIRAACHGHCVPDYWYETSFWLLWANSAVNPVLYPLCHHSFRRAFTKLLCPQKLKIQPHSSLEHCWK

Structure (SMILES)	melting point [°C]	Ki (human H3 receptor) [nM]
C[C@@H]1CCCN1CCCOc1ccc(-c2ccc(OCc3ccc(F)cc3)nn2)cc1 [Example 26, 3-(4-Fluoro-benzyloxy)-6-{4-[3-((R)-2methyl-pyrrolidin-1-yl)-propoxy]phenyl}pyridazine]	118	< 50
COc1cc(-c2ccc(Cl)nn2)ccc1OCCCN1CCCCC1 [Example 11, 3-Chloro-6-[3-methoxy-4-(3-piperidin-1-yl-propoxy)phenyl]pyridazine]	120	> 101
C[C@@H]1CCCN1CCCOc1ccc(-c2ccc(-c3ccccc3)nn2)cc1 [Example 4, 3-{4-[3-((R)-2-Methyl-pyrrolidin-1-yl)-propoxy]-phenyl}-6-phenylpyridazine]	158 to 160	< 50
C[C@@H]1CCCN1CCCOc1ccc(-c2nnc(Cl)c3c2CCC3)cc1 [Example 17, 1-Chloro-4-{4-[3-((R)-2-metyl-pyrrolidin-1-yl)-propoxy]-phenyl}-6,7-dihydro-5H-cyclopenta[d]pyridazine]	65	< 50
Cc1cc(OCCCN2CCCCC2)ccc1-c1ccc(Cl)nn1 [Example 12, 3-Chloro-6-[2-methyl-4-(3-piperidin-1-yl-propoxy)phenyl]pyridazine]	85	< 50
COc1cc(-c2ccc(Cl)nn2)ccc1OCCCN1CCC[C@H]1C [Example 10, 3-Chloro-6-{3-methoxy-4-[3-((R)-2-methyl-pyrrolidin-1-yl)propoxy}phenyl}pyridazine]	122	> 101
N#Cc1cc(-c2ccc(Cl)nn2)ccc1OCCCN1CCCCC1 [Example 14, 5-(6-Chloro-pyridazin-3-yl)-2-(3-piperidin-1-yl-propoxy)benzonitrile]	140 to 142	> 101
C[C@@H]1CCCN1CCCOc1ccc(-c2ccc(Oc3cncc(Cl)c3)nn2)cc1 [Example 19]	119	< 50
CC(C)Oc1ccc(-c2ccc(OCCCN3CCC[C@H]3C)cc2)nn1 [Example 24]	75	< 50
C[C@@H]1CCCN1CCCOc1ccc(-c2ccc(N3CCC(O)CC3)nn2)cc1 [Example 9, 1-(6-{4-[3-((R)-2-Methylpyrrolidin-1-yl)-propoxy]phenyl}pyridazin-3-yl)piperidin-4-ol]	138 to 141	< 50
C[C@@H]1CCCN1CCCOc1ccc(-c2ccc(N3CCCC3)nn2)cc1 [Example 5, 3-{4-[3-((R)-2-Methyl-pyrrolidin-1-yl)-propoxy]-phenyl}-6-pyrrolidin-1-yl-pyridazine]	175 to 180	< 50
COc1ccc(-c2ccc(OCCCN3CCCCC3)cc2)nn1 [Example 23]	116	< 50
C[C@@H]1CCCN1CCCOc1ccc(-c2ccc(NCc3ccccc3)nn2)cc1 [Example 29, Benzyl-(6-{4-[3-((R)-2-methyl-pyrrolidin-1-yl)-propoxy]-phenyl}-pyridazin-3-yl)amine]	139.5 to 141	< 50
C[C@@H]1CCCN1CCCOc1ccc(-c2ccc(-c3cccs3)nn2)cc1 [Example 16, 3-{4-[3-((R)-2-Methyl-pyrrolidin-1-yl)-propoxy]phenyl}-6-thiophen-2-yl-pyridazine]	108	< 50
C[C@@H]1CCCN1CCCOc1ccc(-c2nnc(Cl)c3c2C2CCC3CC2)cc1 [Example 18, 3-Chloro-6-{4-[3-((R)-2-methyl-pyrrolidin-1-yl)-propoxy]-phenyl}-4,5-diaza-tricyclo[6.2.2.0*2,7*]dodeca-2(7),3,5-triene]	132 to 134	< 50
COc1ccc(-c2ccc(OCCCN3CCC[C@H]3C)cc2)nn1 [Example 22]	121	< 50
C[C@@H]1CCCN1CCCOc1ccc(-c2ccc(Cl)nn2)cc1C#N [Example 13, 5-(6-Chloro-pyridazin-3-yl)-2-[3-((R)-2-methyl-pyrrolidin-1-yl)-propoxy]benzonitrile]	134 to 136	< 50
Clc1nnc(-c2ccc(OCCCN3CCCCC3)cc2)c2c1CCC2 [Example 15, 1-Chloro-4-[4-(3-piperidin-1-yl-propoxy)-phenyl]-6,7-dihydro-5H-cyclopenta[d]pyridazine]	120	< 50
C[C@@H]1CCCN1CCCOc1ccc(-c2ccc(OCc3ccc(C(F)(F)F)cc3)nn2)cc1 [Example 27, 3-{4-[3-((R)-2-Methyl-pyrrolidin-1-yl)-propoxy]-phenyl}-6-(4-trifluoromethyl-benzyloxy)pyridazine]	160	< 50
C[C@@H]1CCCN1CCCOc1ccc(-c2ccc(N)nn2)cc1 [Example 7, 6-{4-[3-((R)-2-Methyl-pyrrolidin-1-yl)-propoxy]-phenyl}pyridazin-3-ylamine]	121 to 122	< 50

The next lines start with the values.

melting point [°C]	Ki (human H3 receptor) [nM]	Structure (SMILES)
101	< 50	CSc1ccc(-c2ccc(OCCCN3CCC[C@H]3C)cc2)nn1 [Example 30]
122	< 50	C[C@@H]1CCCN1CCCOc1ccc(-c2nnc(SCc3ccccc3)c3c2CCC3)cc1 [Example 42, 1-Benzylsulfanyl-4-{4-[3-((R)-2-methyl-pyrrolidin-1-yl)propoxy]-phenyl}-6,7-dihydro-5H-cyclopenta[d]pyridazine]
109	< 50	COc1nnc(-c2ccc(OCCCN3CCC[C@H]3C)cc2)c2c1CCC2 [Example 39, 1-Methoxy-4-{4-[3-((R)-2-methylpyrrolidin-1-yl)-propoxy]-phenyl}6,7-dihydro-5H-cyclopenta[d]pyridazine]
122	51 to 100	CSc1ccc(-c2ccc(OCCCN3CCCCC3)cc2)nn1 [Example 31, 3-Methylsulfanyl-6-[4-(3-piperidin-1-yl-propoxy)phenyl]pyridazine]
104	< 50	C[C@@H]1CCCN1CCCOc1ccc(-c2ccc(SCc3ccccc3)nn2)cc1 [Example 33, 3-Benzylsulfanyl-6-{4-[3-((R)-2-methyl-pyrrolidin-1-yl)-propoxy]phenyl}pyridazine]
134	< 50	O=S(=O)(Cc1ccccc1)c1ccc(-c2ccc(OCCCN3CCCCC3)cc2)nn1 [Example 38, 3-Phenylmethanesulfonyl-6-[4-(3-piperidin-1-yl-propoxy)phenyl]pyridazine]
186	< 50	[O-][S+](Cc1ccccc1)c1ccc(-c2ccc(OCCCN3CCCCC3)cc2)nn1 (stereo not shown) [Example 36, 3-Phenylmethanesulfinyl-6-[4-(3-piperidin-1-yl-propoxy)phenyl]pyridazine]
108 to 110	> 101	CC1CCCCN1C[C@H](C)COc1ccc(-c2ccc(Cl)nn2)cc1 (stereo partly drawn) [Example 44, 3-Chloro-6-{4-[(S)-2-methyl-3-(2-methylpiperidin-1-yl)propoxy]-phenyl}pyridazine]
144	< 50	c1ccc(CSc2ccc(-c3ccc(OCCCN4CCCCC4)cc3)nn2)cc1 [Example 34, 3-Benzylsulfanyl-6-[4-(3-piperidin-1-yl-propoxy)-phenyl]pyridazine]
